{
  "source": "patent US20050197350A1",
  "about": "“Novel quinoline, tetrahydroquinazoline, and pyrimidine derivatives and methods of treatment related to the use thereof” (TAISHO PHARMACEUTICAL CO., LTD., priority 2003, published 2005)",
  "data": [
    {"tested_on": "MCH receptors", "test": "MCH receptor activity class (method not given)", "details": "class by percent of control at 10^-7 M or IC50", "values": [
      {"compound": "CCCN(CCC)S(=O)(=O)c1ccc(C(=O)N[C@H]2CC[C@@H](Nc3nccc(N(C)C)n3)CC2)cc1", "note": "[compound 356, N-(cis-4-{[4-(dimethylamino)pyrimidin-2-yl]amino}cyclohexyl)-4-[(dipropylamino)sulfonyl]benzamide]", "class": "1 (Class 1: The value of percent of control at 10^−7 M was less than 40% or the value of IC50 was less than 50 nM.)"},
      {"compound": "CN(C)c1ccnc(N[C@H]2CC[C@@H](NC(=O)C(C)(C)Oc3ccc(Cl)cc3)CC2)n1", "note": "[compound 357, 2-(4-chlorophenoxy)-N-(cis-4-{[4-(dimethylamino)pyrimidin-2-yl]amino}cyclohexyl)-2-methylpropanamide]", "class": "2 (Class 2: The value of percent of control at 10^−7 M was from 40% to 60% or the value of IC′50 was from 50 nM to 200 nM.)"},
      {"compound": "CN(C)c1ccnc(N[C@H]2CC[C@@H](NC(=O)c3cc(-c4ccc(Cl)cc4)oc3C(F)(F)F)CC2)n1", "note": "[compound 358]", "class": "3 (Class 3 The value of percent of control at 10^−7 M was more than 60% or the value of IC50 was more than 200 nM.)"},
      {"compound": "CN(C)c1ccnc(N[C@H]2CC[C@@H](NC(=O)c3csc(-c4ccc5c(c4)CCO5)n3)CC2)n1", "note": "[compound 359, 2-(2,3-dihydro-1-benzofuran-5-yl)-N-(cis-4-{[4-(dimethylamino)pyrimidin-2-yl]amino}cyclohexyl)-1,3-thiazole-4-carboxamide]", "class": "1 (Class 1: The value of percent of control at 10^−7 M was less than 40% or the value of IC50 was less than 50 nM.)"},
      {"compound": "CN(C)c1ccnc(N[C@H]2CC[C@@H](NC(=O)c3cc(C(C)(C)C)nn3Cc3ccc(Cl)cc3Cl)CC2)n1", "note": "[compound 360, 3-tert-butyl-1-(2,4-dichlorobenzyl)-N-(cis-4-{[4-(dimethylamino)pyrimidin-2-yl]amino}cyclohexyl)-1H-pyrazole-5-carboxamide]", "class": "2 (Class 2: The value of percent of control at 10^−7 M was from 40% to 60% or the value of IC′50 was from 50 nM to 200 nM.)"},
      {"compound": "CN(C)c1ccnc(N[C@H]2CC[C@@H](NC(=O)C3=Cc4cc(Cl)ccc4OC3)CC2)n1", "note": "[compound 361, 6-chloro-N-(cis-4-{[4-(dimethylamino)pyrimidin-2-yl]amino}cyclohexyl)-2H-chromene-3-carboxamide]", "class": "2 (Class 2: The value of percent of control at 10^−7 M was from 40% to 60% or the value of IC′50 was from 50 nM to 200 nM.)"},
      {"compound": "CN(C)c1ccnc(N[C@H]2CC[C@@H](NC(=O)c3ccc(OC(F)(F)F)c(Cl)c3)CC2)n1", "note": "[compound 362]", "class": "3 (Class 3 The value of percent of control at 10^−7 M was more than 60% or the value of IC50 was more than 200 nM.)"},
      {"compound": "Cc1cc(=O)oc2c(OCC(=O)N[C@H]3CC[C@@H](Nc4nccc(N(C)C)n4)CC3)cccc12", "note": "[compound 363]", "class": "3 (Class 3 The value of percent of control at 10^−7 M was more than 60% or the value of IC50 was more than 200 nM.)"},
      {"compound": "CN(C)c1ccnc(N[C@H]2CC[C@@H](NC(=O)c3csc(-c4cccs4)n3)CC2)n1", "note": "[compound 364, N-(cis-4-{[4-(dimethylamino)pyrimidin-2-yl]amino}cyclohexyl)-2-(2-thienyl)-1,3-thiazole-4-carboxamide]", "class": "1 (Class 1: The value of percent of control at 10^−7 M was less than 40% or the value of IC50 was less than 50 nM.)"},
      {"compound": "COc1cccc(C(=O)NC[C@H]2CC[C@@H](Nc3nccc(N(C)C)n3)CC2)c1", "note": "[compound 365]", "class": "3 (Class 3 The value of percent of control at 10^−7 M was more than 60% or the value of IC50 was more than 200 nM.)"},
      {"compound": "CN(C)c1ccnc(N[C@H]2CC[C@@H](CNC(=O)c3cccc(Br)c3)CC2)n1", "note": "[compound 366]", "class": "3 (Class 3 The value of percent of control at 10^−7 M was more than 60% or the value of IC50 was more than 200 nM.)"},
      {"compound": "CN(C)c1ccnc(N[C@H]2CC[C@@H](CNC(=O)c3ccc(Br)cc3)CC2)n1", "note": "[compound 367]", "class": "3 (Class 3 The value of percent of control at 10^−7 M was more than 60% or the value of IC50 was more than 200 nM.)"},
      {"compound": "CN(C)c1ccnc(N[C@H]2CC[C@@H](CNC(=O)c3ccc4nonc4c3)CC2)n1", "note": "[compound 368]", "class": "3 (Class 3 The value of percent of control at 10^−7 M was more than 60% or the value of IC50 was more than 200 nM.)"},
      {"compound": "CN(C)c1ccnc(N[C@H]2CC[C@@H](CNC(=O)c3cccc(Cl)c3)CC2)n1", "note": "[compound 369]", "class": "3 (Class 3 The value of percent of control at 10^−7 M was more than 60% or the value of IC50 was more than 200 nM.)"},
      {"compound": "CN(C)c1ccnc(N[C@H]2CC[C@@H](CNC(=O)c3ccc(Cl)cc3)CC2)n1", "note": "[compound 370]", "class": "2 (Class 2: The value of percent of control at 10^−7 M was from 40% to 60% or the value of IC′50 was from 50 nM to 200 nM.)"},
      {"compound": "CN(C)c1ccnc(N[C@H]2CC[C@@H](CNC(=O)/C=C/c3ccccc3)CC2)n1", "note": "[compound 371]", "class": "2 (Class 2: The value of percent of control at 10^−7 M was from 40% to 60% or the value of IC′50 was from 50 nM to 200 nM.)"},
      {"compound": "CN(C)c1ccnc(N[C@H]2CC[C@@H](CNC(=O)c3ccc(Cl)c([N+](=O)[O-])c3)CC2)n1", "note": "[compound 372]", "class": "2 (Class 2: The value of percent of control at 10^−7 M was from 40% to 60% or the value of IC′50 was from 50 nM to 200 nM.)"},
      {"compound": "CN(C)c1ccnc(N[C@H]2CC[C@@H](CNC(=O)Cc3ccc(Cl)cc3)CC2)n1", "note": "[compound 373]", "class": "2 (Class 2: The value of percent of control at 10^−7 M was from 40% to 60% or the value of IC′50 was from 50 nM to 200 nM.)"},
      {"compound": "CN(C)c1ccnc(N[C@H]2CC[C@@H](CNC(=O)c3cccc(C#N)c3)CC2)n1", "note": "[compound 374]", "class": "3 (Class 3 The value of percent of control at 10^−7 M was more than 60% or the value of IC50 was more than 200 nM.)"},
      {"compound": "CN(C)c1ccnc(N[C@H]2CC[C@@H](CNC(=O)c3cc(Cl)cc(Cl)c3)CC2)n1", "note": "[compound 375]", "class": "2 (Class 2: The value of percent of control at 10^−7 M was from 40% to 60% or the value of IC′50 was from 50 nM to 200 nM.)"},
      {"compound": "CN(C)c1ccnc(N[C@H]2CC[C@@H](CNC(=O)c3ccc(Cl)c(Cl)c3)CC2)n1", "note": "[compound 376]", "class": "2 (Class 2: The value of percent of control at 10^−7 M was from 40% to 60% or the value of IC′50 was from 50 nM to 200 nM.)"},
      {"compound": "CN(C)c1ccnc(N[C@H]2CC[C@@H](CNC(=O)C(c3ccccc3)c3ccccc3)CC2)n1", "note": "[compound 377, N-[(cis-4-{[4-(dimethylamino)pyrimidin-2-yl]amino}cyclohexyl)methyl]-2,2-diphenylacetamide]", "class": "1 (Class 1: The value of percent of control at 10^−7 M was less than 40% or the value of IC50 was less than 50 nM.)"},
      {"compound": "CN(C)c1ccnc(N[C@H]2CC[C@@H](CNC(=O)c3ccc(F)c(F)c3)CC2)n1", "note": "[compound 378]", "class": "3 (Class 3 The value of percent of control at 10^−7 M was more than 60% or the value of IC50 was more than 200 nM.)"},
      {"compound": "CN(C)c1ccnc(N[C@H]2CC[C@@H](CNC(=O)c3cc(F)cc(F)c3)CC2)n1", "note": "[compound 379]", "class": "3 (Class 3 The value of percent of control at 10^−7 M was more than 60% or the value of IC50 was more than 200 nM.)"},
      {"compound": "COc1ccc(OC)c(CC(=O)NC[C@H]2CC[C@@H](Nc3nccc(N(C)C)n3)CC2)c1", "note": "[compound 380]", "class": "3 (Class 3 The value of percent of control at 10^−7 M was more than 60% or the value of IC50 was more than 200 nM.)"},
      {"compound": "CCSc1ncccc1C(=O)NC[C@H]1CC[C@@H](Nc2nccc(N(C)C)n2)CC1", "note": "[compound 381]", "class": "3 (Class 3 The value of percent of control at 10^−7 M was more than 60% or the value of IC50 was more than 200 nM.)"},
      {"compound": "CN(C)c1ccnc(N[C@H]2CC[C@@H](CNC(=O)c3ccc(F)cc3)CC2)n1", "note": "[compound 382]", "class": "3 (Class 3 The value of percent of control at 10^−7 M was more than 60% or the value of IC50 was more than 200 nM.)"},
      {"compound": "CN(C)c1ccnc(N[C@H]2CC[C@@H](CNC(=O)c3cc(F)cc(C(F)(F)F)c3)CC2)n1", "note": "[compound 383]", "class": "3 (Class 3 The value of percent of control at 10^−7 M was more than 60% or the value of IC50 was more than 200 nM.)"},
      {"compound": "CN(C)c1ccnc(N[C@H]2CC[C@@H](CNC(=O)c3cc(F)c(Cl)cc3Cl)CC2)n1", "note": "[compound 384]", "class": "2 (Class 2: The value of percent of control at 10^−7 M was from 40% to 60% or the value of IC′50 was from 50 nM to 200 nM.)"},
      {"compound": "CCCCCC(=O)NC[C@H]1CC[C@@H](Nc2nccc(N(C)C)n2)CC1", "note": "[compound 385]", "class": "3 (Class 3 The value of percent of control at 10^−7 M was more than 60% or the value of IC50 was more than 200 nM.)"},
      {"compound": "CN(C)c1ccnc(N[C@H]2CC[C@@H](CNC(=O)c3ccc(I)cc3)CC2)n1", "note": "[compound 386]", "class": "3 (Class 3 The value of percent of control at 10^−7 M was more than 60% or the value of IC50 was more than 200 nM.)"},
      {"compound": "CSc1ncccc1C(=O)NC[C@H]1CC[C@@H](Nc2nccc(N(C)C)n2)CC1", "note": "[compound 387]", "class": "3 (Class 3 The value of percent of control at 10^−7 M was more than 60% or the value of IC50 was more than 200 nM.)"},
      {"compound": "Cc1ccc(C(=O)NC[C@H]2CC[C@@H](Nc3nccc(N(C)C)n3)CC2)cc1[N+](=O)[O-]", "note": "[compound 388]", "class": "3 (Class 3 The value of percent of control at 10^−7 M was more than 60% or the value of IC50 was more than 200 nM.)"},
      {"compound": "CN(C)c1ccnc(N[C@H]2CC[C@@H](CNC(=O)c3cccc([N+](=O)[O-])c3)CC2)n1", "note": "[compound 389]", "class": "3 (Class 3 The value of percent of control at 10^−7 M was more than 60% or the value of IC50 was more than 200 nM.)"},
      {"compound": "CN(C)c1ccnc(N[C@H]2CC[C@@H](CNC(=O)Cc3ccccc3)CC2)n1", "note": "[compound 390]", "class": "3 (Class 3 The value of percent of control at 10^−7 M was more than 60% or the value of IC50 was more than 200 nM.)"},
      {"compound": "CN(C)c1ccnc(N[C@H]2CC[C@@H](CNC(=O)C3C[C@H]3c3ccccc3)CC2)n1", "note": "(stereo partly drawn) [compound 391]", "class": "3 (Class 3 The value of percent of control at 10^−7 M was more than 60% or the value of IC50 was more than 200 nM.)"},
      {"compound": "CN(C)c1ccnc(N[C@H]2CC[C@@H](CNC(=O)c3ccc4c(c3)OCO4)CC2)n1", "note": "[compound 392]", "class": "3 (Class 3 The value of percent of control at 10^−7 M was more than 60% or the value of IC50 was more than 200 nM.)"},
      {"compound": "Cc1cccc(C(=O)NC[C@H]2CC[C@@H](Nc3nccc(N(C)C)n3)CC2)c1", "note": "[compound 395]", "class": "3 (Class 3 The value of percent of control at 10^−7 M was more than 60% or the value of IC50 was more than 200 nM.)"},
      {"compound": "Cc1ccc(C(=O)NC[C@H]2CC[C@@H](Nc3nccc(N(C)C)n3)CC2)cc1", "note": "[compound 396]", "class": "3 (Class 3 The value of percent of control at 10^−7 M was more than 60% or the value of IC50 was more than 200 nM.)"}
    ]}
  ]
}
